Data on 16 compounds can be found in patent US12180207B2 (ARRAY BIOPHARMA INC., priority 2018, dated 2024).

Assay [1] has as its target recombinant human FGFR2 cytoplasmic domain (amino acids 403-822) (Homo sapiens (Human), UniProt P21802). Nature of the assay: FGFR2 enzyme activity assay (LanthaScreen TR-FRET). The following applies: 15 μM ATP, 20 min incubation at 22° C., average of multiple determinations if made, read-out: FGFR2 Enz FRET IC50. It is filed as biochemical. The method, boiled down:
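His-tagged FGFR2 cytoplasmic domain ([…]) with 100 nM Alexa Fluor 647-poly-GT peptide and 15 μM ATP in HEPES/MgCl2/Triton buffer, pH 7.5, 2% DMSO, 20 min at 22 °C. EDTA-quenched, Eu-PY20 antibody added, TR-FRET read after 60 min.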
In general terms: Time-resolved FRET reads energy transfer from a long-lived donor to a nearby acceptor.

Assay [2] has as its target dephosphorylated FGFR1 (SEQ ID NO: 1, amino acids 458 to 765) (Homo sapiens (Human), UniProt P11362). Nature of the assay: FGFR enzyme binding assay (HTRF tracer displacement), FGFR1. The following applies: 5 nM dephosphorylated FGFR1, average of multiple determinations if made. In short, it runs like this:
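Compounds were tested for displacement of a tracer from human FGFR kinase in a time-resolved FRET binding format. After 60 minutes at 22° C, signal was read at two wavelengths and converted to percent of control, normalised between untreated wells and 1 μM reference inhibitor.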

Assay [3] addresses recombinant human FGFR1 catalytic domain (amino acids 308-731) (Homo sapiens (Human), UniProt P11362). Nature of the assay: FGFR1 enzyme activity assay (LanthaScreen TR-FRET). It is filed as biochemical. The following applies: 20 min incubation at 22° C., average of multiple determinations if made, read-out: FGFR1 Enz FRET IC50. The method, boiled down:
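His-tagged FGFR1 kinase domain with 100 nM Alexa Fluor 647-poly-GT peptide and ATP in pH 7.5 HEPES/MgCl2 buffer with 2% DMSO, 20 min at 22 °C. Quenched with EDTA plus 2 nM Eu-PY20 antibody and read after 60 min. IC50 comes from a 4-parameter fit of percent of control.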

Assay [4] concerns the target recombinant human FGFR3 (amino acids R397-T806) (Homo sapiens (Human), UniProt P22607). Nature of the assay: FGFR3 enzyme activity assay (LanthaScreen TR-FRET). It is filed as biochemical. The following applies: 25 μM ATP, 10 min incubation at 22° C., average of multiple determinations if made, read-out: FGFR3 Enz FRET IC50. The method, boiled down: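 GST-HIS6-tagged human FGFR3 (R397-T806) was reacted with 100 nM Alexa Fluor 647-Poly-GT substrate and 25 μM ATP plus compound in HEPES/MgCl2/Triton buffer, pH 7.5, 2% DMSO, for 10 min at 22 °C.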

Assay [5] addresses FGFR1 (SEQ ID NO: 1, amino acids 458-765) (Homo sapiens (Human), UniProt P11362). The assay is described as follows: LC/MS FGFR1 kobs assay (covalent protein modification). It is filed as binding. The following applies: 500 nM FGFR1, 3 μM compound. The method, boiled down: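 Covalent labeling of FGFR1 kinase domain (aa 458-765) tracked over time by intact-protein LC/MS after formic acid quench. kobs derived by fitting DMSO-normalized percent unmodified FGFR1 to an exponential decay model.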

Sequence of FGFR1 (SEQ ID NO: 1, amino acids 458-765) (P11362 458-765): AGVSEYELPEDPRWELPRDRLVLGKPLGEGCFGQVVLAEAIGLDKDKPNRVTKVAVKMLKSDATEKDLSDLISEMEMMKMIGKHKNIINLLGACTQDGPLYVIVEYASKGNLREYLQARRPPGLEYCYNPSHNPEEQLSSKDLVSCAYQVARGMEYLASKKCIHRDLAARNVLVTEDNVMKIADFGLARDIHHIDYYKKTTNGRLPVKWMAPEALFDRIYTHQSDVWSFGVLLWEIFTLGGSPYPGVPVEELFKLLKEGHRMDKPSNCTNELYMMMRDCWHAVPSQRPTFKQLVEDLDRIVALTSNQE
Sequence of dephosphorylated FGFR1 (SEQ ID NO: 1, amino acids 458 to 765) (P11362 458-765): as above
Sequence of recombinant human FGFR2 cytoplasmic domain (amino acids 403-822) (P21802 402-821): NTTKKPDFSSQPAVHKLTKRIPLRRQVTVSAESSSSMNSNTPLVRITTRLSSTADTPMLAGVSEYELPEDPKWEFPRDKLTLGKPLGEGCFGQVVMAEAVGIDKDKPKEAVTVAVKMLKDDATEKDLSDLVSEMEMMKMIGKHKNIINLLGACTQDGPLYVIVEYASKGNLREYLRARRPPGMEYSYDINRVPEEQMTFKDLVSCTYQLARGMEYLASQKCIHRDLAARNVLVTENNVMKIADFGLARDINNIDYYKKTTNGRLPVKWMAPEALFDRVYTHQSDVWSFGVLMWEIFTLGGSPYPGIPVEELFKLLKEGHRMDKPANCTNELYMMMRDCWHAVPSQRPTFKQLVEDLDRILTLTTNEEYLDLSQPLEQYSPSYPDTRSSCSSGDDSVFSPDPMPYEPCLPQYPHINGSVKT
Sequence of recombinant human FGFR3 (amino acids R397-T806) (P22607 397-806): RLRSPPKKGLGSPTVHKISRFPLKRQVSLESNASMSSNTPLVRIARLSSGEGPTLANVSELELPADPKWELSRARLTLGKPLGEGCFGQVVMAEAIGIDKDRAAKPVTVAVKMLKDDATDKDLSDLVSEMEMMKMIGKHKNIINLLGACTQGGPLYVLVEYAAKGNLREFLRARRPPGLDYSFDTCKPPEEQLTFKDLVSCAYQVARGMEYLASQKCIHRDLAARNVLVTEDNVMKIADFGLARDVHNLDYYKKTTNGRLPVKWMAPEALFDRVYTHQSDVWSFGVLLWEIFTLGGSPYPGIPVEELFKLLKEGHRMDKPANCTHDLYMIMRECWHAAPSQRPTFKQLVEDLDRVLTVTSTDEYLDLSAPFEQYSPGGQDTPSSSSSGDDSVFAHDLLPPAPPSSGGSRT
Sequence of recombinant human FGFR1 catalytic domain (amino acids 308-731) (P11362 other isoform, or with tags, fused parts or gaps): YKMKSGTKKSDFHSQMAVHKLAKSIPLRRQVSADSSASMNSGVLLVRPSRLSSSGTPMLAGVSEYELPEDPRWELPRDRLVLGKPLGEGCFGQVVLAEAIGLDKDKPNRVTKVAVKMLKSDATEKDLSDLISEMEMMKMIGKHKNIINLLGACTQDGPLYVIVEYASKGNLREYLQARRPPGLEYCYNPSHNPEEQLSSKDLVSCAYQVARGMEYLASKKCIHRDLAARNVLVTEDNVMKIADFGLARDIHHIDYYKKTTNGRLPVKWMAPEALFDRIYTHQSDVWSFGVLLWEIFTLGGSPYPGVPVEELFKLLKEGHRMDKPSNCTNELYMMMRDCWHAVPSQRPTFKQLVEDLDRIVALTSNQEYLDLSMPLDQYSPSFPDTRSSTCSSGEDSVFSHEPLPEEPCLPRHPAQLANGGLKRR

Consider `C=CC(=O)Nc1ccc(C(=O)N2CC[C@H](n3cc(-c4cc(OC)c5c(C#N)cnn5c4)cn3)C2)c(C)c1` [Example 68, (S)-N-(4-(3-(4-(3-cyano-4-methoxypyrazolo[1,5-a]pyridin-6-yl)-1H-pyrazol-1-yl)pyrrolidine-1-carbonyl)-3-methylphenyl)acrylamide], for which the IC50 in assay [1] turned out to be 4 nM; in assay [2] it was 94 nM; in assay [3], 6 nM; in assay [4] it was 5 nM. For the same compound, in assay [5], the “FGFR1 Enz kobs” value was determined as 0.00181 min⁻¹.
For `C=CC(=O)Nc1ccc(C(=O)N2CC[C@H](n3cc(-c4cc(OC)c5c(C#N)cnn5c4)cn3)C2)c(OC)c1` [Example 69, (S)-N-(4-(3-(4-(3-cyano-4-methoxypyrazolo[1,5-a]pyridin-6-yl)-1H-pyrazol-1-yl)pyrrolidine-1-carbonyl)-3-methoxyphenyl)acrylamide], the IC50 in assay [1] turned out to be 6 nM; in assay [2], 77 nM; in assay [3] it was 12 nM; in assay [4], 6 nM. Further, the “FGFR1 Enz kobs” value in assay [5] was determined as 0.00422 min⁻¹.
Consider `C=CC(=O)Nc1ccc(C(=O)N2CC[C@H](n3cc(-c4cc(OC)c5c(C#N)cnn5c4)cn3)C2)cc1C` [Example 70, (S)-N-(4-(3-(4-(3-cyano-4-methoxypyrazolo[1,5-a]pyridin-6-yl)-1H-pyrazol-1-yl)pyrrolidine-1-carbonyl)-2-methylphenyl)acrylamide], for which the IC50 was found to be 4 nM in assay [1], 199 nM in assay [2], 16 nM in assay [3] and 6 nM in assay [4]. For the same compound, the “FGFR1 Enz kobs” value in assay [5] amounted to 0.00278 min⁻¹.
Regarding `C=CC(=O)Nc1ccc(C(=O)N2CC[C@H](n3cc(-c4cc(OC)c5c(C#N)cnn5c4)cn3)C2)cc1OC` [Example 71, (S)-N-(4-(3-(4-(3-cyano-4-methoxypyrazolo[1,5-a]pyridin-6-yl)-1H-pyrazol-1-yl)pyrrolidine-1-carbonyl)-2-methoxyphenyl)acryla72 mide], the IC50 in assay [1] is 4 nM; in assay [2], 147 nM; in assay [3] it was 18 nM; in assay [4], 6 nM. Moreover, in assay [5], the “FGFR1 Enz kobs” value turned out to be 0.00457 min⁻¹.
With `C=CC(=O)N1CC(C(=O)N2CC[C@H](n3cc(-c4cc(OC)c5c(C#N)cnn5c4)cn3)C2)C1` [Example 73, (S)-6-(1-(1-(1-acryloylazetidine-3-carbonyl)pyrrolidin-3-yl)-1H-pyrazol-4-yl)-4-methoxypyrazolo[1,5-a]pyridine-3-carbonitrile], the IC50 was 4 nM in assay [1], 58 nM in assay [2], 20 nM in assay [3] and 4 nM in assay [4]. Moreover, the “FGFR1 Enz kobs” value in assay [5] is 0.00108 min⁻¹.
For `C=CC(=O)N1CC[C@H](C(=O)N2CC(n3cc(-c4cc(OC)c5c(C#N)cnn5c4)cn3)C2)C1` [Example 76, (S)-6-(1-(1-(1-acryloylpyrrolidine-3-carbonyl)azetidin-3-yl)-1H-pyrazol-4-yl)-4-methoxypyrazolo[1,5-a]pyridine-3-carbonitrile], the IC50 in assay [1] worked out at 17 nM; in assay [2] it was 409 nM; in assay [3], 52 nM; in assay [4], 13 nM. Moreover, in assay [5], the “FGFR1 Enz kobs” value was determined as 0.0007 min⁻¹.
For the compound `C=CC(=O)N1CC(C(=O)N2CC(n3cc(-c4cc(OC)c5c(C#N)cnn5c4)cn3)C2)C1` [Example 78, 6-(1-(1-(1-acryloylazetidine-3-carbonyl)azetidin-3-yl)-1H-pyrazol-4-yl)-4-methoxypyrazolo[1,5-a]pyridine-3-carbonitrile], the IC50 came to 23 nM in assay [1], 98 nM in assay [2], 17 nM in assay [3] and 12 nM in assay [4]. For the same compound, the “FGFR1 Enz kobs” value in assay [5] stood at 0.00146 min⁻¹.
For `C=CC(=O)N1CC(CN2CC(n3cc(-c4cc(OC)c5c(C#N)cnn5c4)cn3)C2)C1` [Example 81, 6-(1-(1-((1-acryloylazetidin-3-yl)methyl)azetidin-3-yl)-1H-pyrazol-4-yl)-4-methoxypyrazolo[1,5-a]pyridine-3-carbonitrile], the IC50 in assay [1] was determined as 8 nM; in assay [2], 186 nM; in assay [3], 31 nM; in assay [4] it was 9 nM. Besides, in assay [5], the “FGFR1 Enz kobs” value came out at 0.00086 min⁻¹.
On to `C=CC(=O)N1CCC(C(=O)N2CCC(n3ncc(-c4cc(OC)c5c(C#N)cnn5c4)c3C)CC2)CC1` [Example 82, 6-(1-(1-(1-acryloylpiperidine-4-carbonyl)piperidin-4-yl)-5-methyl-1H-pyrazol-4-yl)-4-methoxypyrazolo[1,5-a]pyridine-3-carbonitrile], for which the IC50 in assay [1] was 9 nM; in assay [2], 374 nM; in assay [3], 73 nM; in assay [4] it was 10 nM. Also, the “FGFR1 Enz kobs” value in assay [5] was found to be 0.00034 min⁻¹.
Consider `C=CC(=O)N1CC[C@@H](C(=O)N2CCC(n3ncc(-c4cc(OC)c5c(C#N)cnn5c4)c3C)CC2)C1` [Example 83, (R)-6-(1-(1-(1-acryloylpyrrolidine-3-carbonyl)piperidin-4-yl)-5-methyl-1H-pyrazol-4-yl)-4-methoxypyrazolo[1,5-a]pyridine-3-carbonitrile], for which the IC50 in assay [1] came to 9 nM; in assay [2] it was 420 nM; in assay [3], 77 nM; in assay [4], 7 nM. In assay [5], the “FGFR1 Enz kobs” value stood at 0.00058 min⁻¹.
The like results for `C=CC(=O)N1CC(C(=O)N2CCC(n3ncc(-c4cc(OC)c5c(C#N)cnn5c4)c3C)CC2)C1` [Example 84, 6-(1-(1-(1-acryloylazetidine-3-carbonyl)piperidin-4-yl)-5-methyl-1H-pyrazol-4-yl)-4-methoxypyrazolo[1,5-a]pyridine-3-carbonitrile] were, in that order, 15 nM, 777 nM, 100 nM, 6 nM and 0.00183 min⁻¹.
The like results for `C=CC(=O)N1CC(F)(C(=O)N2CCC(n3ncc(-c4cc(OC)c5c(C#N)cnn5c4)c3C)CC2)C1` [Example 85, 6-(1-(1-(1-acryloyl-3-fluoroazetidine-3-carbonyl)piperidin-4-yl)-5-methyl-1H-pyrazol-4-yl)-4-methoxypyrazolo[1,5-a]pyridine-3-carbonitrile] were, in that order, 13 nM, 247 nM, 77 nM, 7 nM and 0.00492 min⁻¹.
In the same order, the values of `C=CC(=O)N1CC(C)(C(=O)N2CCC(n3ncc(-c4cc(OC)c5c(C#N)cnn5c4)c3C)CC2)C1` [Example 86, 6-(1-(1-(1-acryloyl-3-methylazetidine-3-carbonyl)piperidin-4-yl)-5-methyl-1H-pyrazol-4-yl)-4-methoxypyrazolo[1,5-a]pyridine-3-carbonitrile] are 96 nM, 342 nM, 617 nM, 11 nM and 0.00258 min⁻¹.
On to `C=CC(=O)N1CC(C(=O)N2CCC(n3ncc(-c4cc(OC)c5c(C#N)cnn5c4)c3C)CC2)C1(C)C` (centres unmarked) [Example 87, 6-(1-(1-(1-acryloyl-2,2-dimethylazetidine-3-carbonyl)piperidin-4-yl)-5-methyl-1H-pyrazol-4-yl)-4-methoxypyrazolo[1,5-a]pyridine-3-carbonitrile], for which the IC50 in assay [1] amounted to 18 nM; in assay [2], 322 nM; in assay [3], 240 nM; in assay [4], 32 nM. The “FGFR1 Enz kobs” value in assay [5] is 0.00052 min⁻¹.
In the same order, the values of `C=CC(=O)N1CC(OC)(C(=O)N2CCC(n3ncc(-c4cc(OC)c5c(C#N)cnn5c4)c3C)CC2)C1` [Example 88, 6-(1-(1-(1-acryloyl-3-methoxyazetidine-3-carbonyl)piperidin-4-yl)-5-methyl-1H-pyrazol-4-yl)-4-methoxypyrazolo[1,5-a]pyridine-3-carbonitrile] are 69 nM, 202 nM, 152 nM, 29 nM and 0.00646 min⁻¹.
For `C=CC(=O)N1CC(CN2CCC(n3ncc(-c4cc(OC)c5c(C#N)cnn5c4)c3C)CC2)C1` [Example 89, 6-(1-(1-((1-acryloylazetidin-3-yl)methyl)piperidin-4-yl)-5-methyl-1H-pyrazol-4-yl)-4-methoxypyrazolo[1,5-a]pyridine-3-carbonitrile], the IC50 in assay [1] was determined as 50 nM; in assay [2], 236 nM; in assay [3], 108 nM; in assay [4], 15 nM. In addition, the “FGFR1 Enz kobs” value in assay [5] was 0.00364 min⁻¹.

For orientation: IC50 means the midpoint of a concentration-inhibition curve.
